Patent US7928107B2, “Quinazolines useful as modulators of ion channels” (Vertex Pharmaceuticals Incorporated, priority 2004, dated 2011)
pIC50: −log10 of the molar value.

Biological target: NaV 1.8 channel (Homo sapiens, UniProt Q9Y5Y9)
Test: Activity against NaV 1.8 channel (optical membrane potential assay)
Format: cell-based
Summary of the method: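 FRET membrane-potential assay (coumarin CC2-DMPE donor, oxonol DiSBAC2(3) acceptor plus veratridine) on VIPR; compound added with oxonol for 20–30 min before Na+ add-back stimulation. Activity from background-subtracted 460/580 nm ratio change (baseline 2–7 s, response 15–24 s) relative to tetracaine positive and drug-free negative controls.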

Sequence of NaV 1.8 channel (Q9Y5Y9 whole entry): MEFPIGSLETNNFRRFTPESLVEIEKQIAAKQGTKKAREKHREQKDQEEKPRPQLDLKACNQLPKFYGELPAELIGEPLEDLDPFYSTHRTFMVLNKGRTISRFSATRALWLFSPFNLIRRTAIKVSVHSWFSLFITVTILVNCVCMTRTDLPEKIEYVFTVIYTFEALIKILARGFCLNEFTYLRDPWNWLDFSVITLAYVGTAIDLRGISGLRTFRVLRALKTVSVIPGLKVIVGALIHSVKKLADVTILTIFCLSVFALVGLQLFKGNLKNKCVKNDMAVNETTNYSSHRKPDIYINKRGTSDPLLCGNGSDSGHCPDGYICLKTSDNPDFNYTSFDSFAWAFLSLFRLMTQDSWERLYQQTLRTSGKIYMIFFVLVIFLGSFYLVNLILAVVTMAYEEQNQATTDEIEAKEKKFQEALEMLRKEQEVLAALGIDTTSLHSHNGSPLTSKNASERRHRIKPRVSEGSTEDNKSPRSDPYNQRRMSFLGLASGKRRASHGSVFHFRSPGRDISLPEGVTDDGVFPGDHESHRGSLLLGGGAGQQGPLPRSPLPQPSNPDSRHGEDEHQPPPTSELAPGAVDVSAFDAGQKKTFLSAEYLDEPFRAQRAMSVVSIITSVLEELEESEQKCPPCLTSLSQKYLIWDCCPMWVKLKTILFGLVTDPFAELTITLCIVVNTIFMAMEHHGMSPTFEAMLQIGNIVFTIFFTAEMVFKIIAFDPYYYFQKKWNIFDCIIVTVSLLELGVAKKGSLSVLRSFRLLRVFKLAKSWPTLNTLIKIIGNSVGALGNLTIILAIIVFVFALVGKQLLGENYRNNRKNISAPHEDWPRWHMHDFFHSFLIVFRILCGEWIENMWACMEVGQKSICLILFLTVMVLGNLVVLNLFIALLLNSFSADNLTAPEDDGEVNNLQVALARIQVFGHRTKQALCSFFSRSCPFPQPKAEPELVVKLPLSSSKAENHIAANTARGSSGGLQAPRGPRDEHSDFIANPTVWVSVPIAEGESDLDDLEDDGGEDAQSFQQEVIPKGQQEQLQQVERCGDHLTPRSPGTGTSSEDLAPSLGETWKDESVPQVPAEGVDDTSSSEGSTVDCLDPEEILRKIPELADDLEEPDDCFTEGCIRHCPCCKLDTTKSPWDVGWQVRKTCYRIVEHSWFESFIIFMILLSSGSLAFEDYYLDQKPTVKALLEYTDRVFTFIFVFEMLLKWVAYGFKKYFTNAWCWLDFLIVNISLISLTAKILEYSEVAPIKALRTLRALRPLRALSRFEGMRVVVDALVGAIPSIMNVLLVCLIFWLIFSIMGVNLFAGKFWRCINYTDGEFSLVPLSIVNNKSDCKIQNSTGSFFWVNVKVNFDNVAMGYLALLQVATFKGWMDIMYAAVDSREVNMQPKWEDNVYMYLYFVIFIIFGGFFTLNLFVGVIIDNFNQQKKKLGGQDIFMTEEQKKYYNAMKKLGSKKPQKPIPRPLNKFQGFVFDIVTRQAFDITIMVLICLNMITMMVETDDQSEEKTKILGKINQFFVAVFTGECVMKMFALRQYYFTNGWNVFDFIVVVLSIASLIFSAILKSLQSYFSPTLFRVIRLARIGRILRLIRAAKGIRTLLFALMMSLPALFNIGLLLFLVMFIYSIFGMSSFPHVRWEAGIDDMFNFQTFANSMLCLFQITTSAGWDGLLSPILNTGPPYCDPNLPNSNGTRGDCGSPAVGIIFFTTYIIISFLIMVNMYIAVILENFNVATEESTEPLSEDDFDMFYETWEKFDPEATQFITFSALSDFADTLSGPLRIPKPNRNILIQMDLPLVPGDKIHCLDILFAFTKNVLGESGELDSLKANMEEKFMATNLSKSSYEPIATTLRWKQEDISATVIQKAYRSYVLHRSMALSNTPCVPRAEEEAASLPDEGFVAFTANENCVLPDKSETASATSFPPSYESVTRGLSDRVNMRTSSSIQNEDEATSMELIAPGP

Compound | pIC50
Cc1ccc2c(N3CCN(C(=O)OCc4cccc5c4OCO5)CC3)nc(-c3ccccc3O)nc2c1 [Example 103, (Benzo[d][1,3]dioxol-7-yl)methyl 4-(2-(2-hydroxyphenyl)-7-methylquinazolin-4-yl)piperazine-1-carboxylate] | < 5.00
Cc1ccc2c(N3CC(C(=O)NCc4ccncc4)C3)nc(-c3ccccc3O)nc2c1 [Example 401, 1-(2-(2-Hydroxyphenyl)-7-methylquinazolin-4-yl)-N-((pyridin-4-yl)methyl)azetidine-3-carboxamide] | < 5.00
Cc1ccc2c(N3CC[C@@H](NC(=O)OCc4cccc5c4OCO5)C3)nc(-c3ccccc3O)nc2c1 [Example 321, (Benzo[d][1,3]dioxol-7-yl)methyl (R)-1-(2-(2-hydroxyphenyl)-7-methylquinazolin-4-yl)pyrrolidin-3-ylcarbamate] | < 5.00
Cc1ccc2c(N3CC[C@@H](NC(=O)CCc4cccnc4)C3)nc(-c3ccccc3O)nc2c1 [Example 322, N—((R)-1-(2-(2-Hydroxyphenyl)-7-methylquinazolin-4-yl)pyrrolidin-3-yl)-3-(pyridin-3-yl)propanamide] | < 5.00
Cc1ccc2c(N3CCN(C(=O)[C@@H](O)C(C)(C)C)CC3)nc(-c3c(O)cccc3F)nc2c1 [Example 138, (S)-1-(4-(2-(2-Fluoro-6-hydroxyphenyl)-7-methylquinazolin-4-yl)piperazin-1-yl)-2-hydroxy-3,3-dimethylbutan-1-one] | < 5.00
Cc1ccc2c(N3CCN(C(=O)[C@@H](O)Cc4ccccc4)CC3)nc(-c3ccccc3O)nc2c1 [Example 131, (S)-2-Hydroxy-1-{4-[2-(2-hydroxy-phenyl)-7-methyl-quinazolin-4-yl]-piperazin-1-yl}-3-phenylpropan-1-one] | < 5.00
CCCOC(=O)NC[C@@H]1CCN(c2nc(-c3ccccc3O)nc3ccc(F)cc23)C1 [Example 374, Propyl ((S)-1-(6-fluoro-2-(2-hydroxyphenyl)quinazolin-4-yl)pyrrolidin-3-yl)methylcarbamate] | < 5.00
Cc1ccc2c(N3CCC(NC(=O)CC4CCOCC4)CC3)nc(-c3ccccc3O)nc2c1 [Example 221, 2-(Tetrahydro-2H-pyran-4-yl)-N-(1-(2-(2-hydroxyphenyl)-7-methylquinazolin-4-yl)piperidin-4-yl)acetamide] | < 5.00
Cc1ccc2c(N3CC[C@@H](NC(=O)C(O)c4ccc(F)cc4)C3)nc(-c3c(O)cccc3F)nc2c1 (stereo partly drawn) [Example 359, N—((R)-1-(2-(2-Fluoro-6-hydroxyphenyl)-7-methylquinazolin-4-yl)pyrrolidin-3-yl)-2-(4-fluorophenyl)-2-hydroxyacetamide] | < 5.00
Cc1ccc2c(N3CCC[C@H](NC(=O)[C@H]4CCCO4)C3)nc(-c3ccccc3O)nc2c1 [Example 205, (2R)-Tetrahydro-N—((S)-1-(2-(2-hydroxyphenyl)-7-methylquinazolin-4-yl)piperidin-3-yl)furan-2-carboxamide] | < 5.00
O=C(NC1CCN(c2nc(-c3c(O)cccc3Cl)nc3ccccc23)CC1)[C@H]1CCCO1 [Example 213, (2R)—N—(1-(2-(2-Chloro-6-hydroxyphenyl)quinazolin-4-yl)piperidin-4-yl)-tetrahydrofuran-2-carboxamide] | < 5.00
Cc1ccc2c(N3CC[C@@H](NC(=O)[C@H]4CCCO4)C3)nc(-c3ccccc3O)nc2c1 [Example 302, (R,R)-Tetrahydro-furan-2-carboxylic acid {1-[2-(2-hydroxy-phenyl)-7-methyl-quinazolin-4-yl]-pyrrolidin-3-yl}-amide] | < 5.00
Cc1ccc2c(N3CC[C@@H](NC(=O)c4cccc(C#N)c4)C3)nc(-c3ccccc3O)nc2c1 [Example 327, 3-Cyano-N—((R)-1-(2-(2-hydroxyphenyl)-7-methylquinazolin-4-yl)pyrrolidin-3-yl)benzamide] | < 5.00
COCCOC(=O)NC[C@@H]1CCCN(c2nc(-c3c(O)cccc3F)nc3cc(C)ccc23)C1 [Example 261, 2-Methoxyethyl ((S)-1-(2-(2-fluoro-6-hydroxyphenyl)-7-methylquinazolin-4-yl)piperidin-3-yl)methylcarbamate] | 5.00 to 5.70
CC[C@H](O)C(=O)N1CCN(c2nc(-c3ccccc3O)nc3cc(C)ccc23)CC1 [Example 124, (S)-2-Hydroxy-1-(4-(2-(2-hydroxyphenyl)-7-methylquinazolin-4-yl)piperazin-1-yl)butan-1-one] | < 5.00
O=C(N[C@@H]1CCN(c2nc(-c3ccccc3O)nc3ccc(F)cc23)C1)c1ccncc1 [Example 347, N—((R)-1-(6-Fluoro-2-(2-hydroxyphenyl)quinazolin-4-yl)pyrrolidin-3-yl)isonicotinamide] | < 5.00
Cc1ccc2c(N3CC(CNC(=O)OCC(C)C)C3)nc(-c3ccccc3O)nc2c1 [Example 418] | 5.00 to 5.70
Cc1ccc2c(N3CCN(C(=O)[C@H](O)CC(N)=O)CC3)nc(-c3ccccc3O)nc2c1 [Example 154, (R)-3-Hydroxy-4-(4-(2-(2-hydroxyphenyl)-7-methylquinazolin-4-yl)piperazin-1-yl)-4-oxobutanamide] | < 5.00
Cc1ccc2c(N3CC(CNC(=O)OCC4CCCO4)C3)nc(-c3ccccc3O)nc2c1 (stereo not drawn) [Example 415] | 5.00 to 5.70
O=C(NC[C@@H]1CCN(c2nc(-c3ccccc3O)nc3ccc(F)cc23)C1)O[C@@H]1CCOC1 [Example 355, (R)-Tetrahydrofuran-3-yl ((S)-1-(6-fluoro-2-(2-hydroxyphenyl)quinazolin-4-yl)pyrrolidin-3-yl)methylcarbamate] | < 5.00
O=C(N[C@@H]1CCN(c2nc(-c3ccccc3O)nc3ccc(F)cc23)C1)O[C@H]1CCOC1 [Example 335, (S)-Tetrahydrofuran-3-yl (R)-1-(6-fluoro-2-(2-hydroxyphenyl)quinazolin-4-yl)pyrrolidin-3-ylcarbamate] | 5.00 to 5.70
Cc1ccc2c(N3CC[C@@H](NC(=O)c4cccc(OC(F)(F)F)c4)C3)nc(-c3ccccc3O)nc2c1 [Example 325, N—((R)-1-(2-(2-Hydroxyphenyl)-7-methylquinazolin-4-yl)pyrrolidin-3-yl)-3-(trifluoromethoxy)benzamide] | < 5.00
Cc1ccc2c(N3CCC(NC(=O)C(C)(C)O)CC3)nc(-c3ccccc3O)nc2c1 [Example 233, 2-Hydroxy-N-(1-(2-(2-hydroxyphenyl)-7-methylquinazolin-4-yl)piperidin-4-yl)-2-methylpropanamide] | < 5.00
Cc1ccc2c(N3CCN(C(=O)CC4CCOCC4)CC3)nc(-c3ccccc3O)nc2c1 [Example 105] | 5.00 to 5.70
CCCOC(=O)NC[C@@H]1CCCN(c2nc(-c3ccccc3O)nc3cc(C)ccc23)C1 [Example 256, Propyl ((S)-1-(2-(2-hydroxyphenyl)-7-methylquinazolin-4-yl)piperidin-3-yl)methylcarbamate] | 5.00 to 5.70

Results, then the molecule that gave them:

pIC50 | Compound
5.00 to 5.70 | COCCOC(=O)NC[C@@H]1CCN(c2nc(-c3ccccc3O)nc3ccc(F)cc23)C1 [Example 377, 2-Methoxyethyl ((S)-1-(6-fluoro-2-(2-hydroxyphenyl)quinazolin-4-yl)pyrrolidin-3-yl)methylcarbamate]
5.00 to 5.70 | CC(C)=CC(O)C(=O)N1CCN(c2nc(-c3ccccc3O)nc3cc(C)ccc23)CC1 (stereo not drawn) [Example 189]
5.00 to 5.70 | Cc1ccc2c(N3CC[C@@H](NC(=O)c4ccccn4)C3)nc(-c3c(O)cccc3F)nc2c1 [Example 351, N—((R)-1-(2-(2-Fluoro-6-hydroxyphenyl)-7-methylquinazolin-4-yl)pyrrolidin-3-yl)picolinamide]
> 5.70 | Cc1ccc2c(N3CCC[C@@H](CNC(=O)OCC(C)C)C3)nc(-c3c(O)cccc3F)nc2c1 [Example 260, Isobutyl ((S)-1-(2-(2-fluoro-6-hydroxyphenyl)-7-methylquinazolin-4-yl)piperidin-3-yl)methylcarbamate]
5.00 to 5.70 | CCCC(O)C(=O)N1CCN(c2nc(-c3ccccc3O)nc3ccccc23)CC1 (stereo not drawn) [Example 174, 2-Hydroxy-1-(4-(2-(2-hydroxyphenyl)quinazolin-4-yl)piperazin-1-yl)pentan-1-one]
> 5.70 | Cc1ccc2c(N3CCN(C(=O)OCC(C)(C)C)CC3)nc(-c3ccccc3O)nc2c1 [Example 197]
> 5.70 | Cc1ccc2c(N3CCC(NC(=O)[C@H]4CCCO4)CC3)nc(-c3ccccc3O)nc2c1 [Example 283]
5.00 to 5.70 | Cc1ccc2c(N3CC[C@@H](NC(=O)OCc4ccncc4)C3)nc(-c3ccccc3O)nc2c1 [Example 320, (Pyridin-4-yl)methyl (R)-1-(2-(2-hydroxyphenyl)-7-methylquinazolin-4-yl)pyrrolidin-3-ylcarbamate]
5.00 to 5.70 | Cc1ccc2c(N3CCC(NC(=O)[C@H]4CCCO4)CC3)nc(-c3ccccc3O)nc2c1 [Example 276, (R)-Tetrahydro-furan-2-carboxylic acid {1-[2-(2-hydroxy-phenyl)-7-methyl-quinazolin-4-yl]-piperidin-4-yl}-amide]
> 5.70 | CCOC(=O)C(=O)N1CCN(c2nc(-c3ccccc3O)nc3cc(C)ccc23)CC1 [Example 195]
5.00 to 5.70 | CCC(C)(O)C(=O)NC1CCN(c2nc(-c3ccccc3O)nc3ccccc23)CC1 (stereo not drawn) [Example 242, 2-Hydroxy-N-(1-(2-(2-hydroxyphenyl)quinazolin-4-yl)piperidin-4-yl)-2-methylbutanamide]
> 5.70 | Cc1ccc2c(N3CCN(C(=O)[C@H](O)CC(C)(C)C)CC3)nc(-c3ccccc3O)nc2c1 [Example 101, (R)-2-Hydroxy-1-(4-(2-(2-hydroxyphenyl)-7-methylquinazolin-4-yl)piperazin-1-yl)-4,4-dimethylpentan-1-one]
> 5.70 | Cc1ccc2c(N3CCN(C(=O)C(=O)C(C)C)CC3)nc(-c3ccccc3O)nc2c1 [Example 186]
> 5.70 | Cc1ccc2c(N3CCC(NC(=O)OC(C)(C)C)CC3)nc(-c3ccccc3O)nc2c1 [Example 259, {1-[2-(2-Hydroxy-phenyl)-7-methyl-quinazolin-4-yl]-piperidin-4-yl}-carbamic acid tert-butyl ester]
